Measured values: PMC3064226 (The Journal of Biological Chemistry, 2011)

Biological target: T1, PfnPrx (His6-nPrx1-164) (Plasmodium falciparum, UniProt Q8IJD0)
T1 sequence (Q8IJD0 1-164): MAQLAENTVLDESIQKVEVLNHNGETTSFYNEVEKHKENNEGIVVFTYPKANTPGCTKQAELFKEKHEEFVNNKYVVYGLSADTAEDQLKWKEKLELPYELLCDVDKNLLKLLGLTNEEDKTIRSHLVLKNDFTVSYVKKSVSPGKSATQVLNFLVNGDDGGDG
Experiment: NADPH oxidation at […] nm, coupled to glutathione reductase/GSH/PfGrx1
Format: biochemical
Conditions: read-out: apparent Km; 10 μM PfGrx1, 1 mM GSH, 200 μM NADPH, 100 mM HEPES pH 7.6, 1 mM EDTA, 25 °C

## CC(C)(OO)c1ccccc1 [cumene hydroperoxide]
  Km: ~30 µM
